Drawing on ChEMBL document CHEMBL4513161, “CO-ADD screening of MMV (CH) - Pandemic Response Box” (2021), this text covers CC50 and MIC for 20 compounds.

Values after ≈ are worked out from the molar mass of the structure shown.

The test system of one assay is HEK293. The assay is described as follows: cells. It counts as functional, Homo sapiens, ATCC CRL1573. The conditions noted are these: Homo sapiens, ATCC CRL1573, HEK293; ASSAY_TEST Inhibition of Cell Viability; detection method Resazurin; Fluorescence (ex560/em590); MEDIA DMEM with 10% FBS; plate type 384well; TC; CORNING #3712; time 18 hr; read-out: CC50. (Resazurin is reduced to fluorescent resorufin, in cell work by metabolically active cells.)

In assay [1] the test system is Pseudomonas aeruginosa. The assay is described as follows: Antibacterial activity against Pseudomonas aeruginosa PAO397 [PAO1 d(mexAB-oprM) d(mexCD-oprJ) d(mexEF-oprN) d(mexJKL) d(mexXY) d(opmH)] (CO-ADD:GN_211); MIC in CAMBH media using NBS plates, by OD(600). It counts as functional. As to conditions: ASSAY_TEST Inhibition of Bacterial Growth, detection method Absorption (OD600), MEDIA CAMHB, plate type 384well, CORNING #3640, time 18 hr.

The next assay relates to Staphylococcus aureus. The assay is described as follows: microbe, parasite or virus in culture. The conditions noted are these: ATCC 43300, 18 h, ASSAY_TEST Inhibition of Bacterial Growth, detection method Absorption (OD600), MEDIA CAMHB, plate type 384well, NBS, CORNING #3640.
The test system of another assay is Escherichia coli. The assay is described as follows: microbe, parasite or virus in culture. The conditions noted are these: ATCC 25922, 18 h, ASSAY_TEST Inhibition of Bacterial Growth, detection method Absorption (OD600), MEDIA CAMHB, plate type 384well, NBS, CORNING #3640.
The test system of another assay is Klebsiella pneumoniae. Kind of assay: microbe, parasite or virus in culture. As to conditions: ATCC 700603, 18 h, ASSAY_TEST Inhibition of Bacterial Growth, detection method Absorption (OD600), MEDIA CAMHB, plate type 384well, NBS, CORNING #3640.
For assay [2], the system named is Pseudomonas aeruginosa. Kind of assay: microbe, parasite or virus in culture. As to conditions: ATCC 27853, 18 h, ASSAY_TEST Inhibition of Bacterial Growth, detection method Absorption (OD600), MEDIA CAMHB, plate type 384well, NBS, CORNING #3640.
Description: Antibacterial activity against Pseudomonas aeruginosa ATCC 27853 (CO-ADD:GN_042); MIC in CAMBH media using NBS plates, by OD(600)
The next assay has as its system Acinetobacter baumannii. Kind of assay: microbe, parasite or virus in culture. As to conditions: ATCC 19606, 18 h, ASSAY_TEST Inhibition of Bacterial Growth, detection method Absorption (OD600), MEDIA CAMHB, plate type 384well, NBS, CORNING #3640.
Another assay relates to Candida albicans. The assay is described as follows: microbe, parasite or virus in culture. The conditions noted are these: ATCC 90028, ASSAY_TEST Inhibition of Fungal Growth, detection method Absorption (OD530), plate type 384well, NBS, CORNING #3640.

Description for Acinetobacter baumannii: Antibacterial activity against Acinetobacter baumannii ATCC 19606 (CO-ADD:GN_034); MIC in CAMBH media using NBS plates, by OD600
Description for Candida albicans: Antifungal activity against Candida albicans ATCC 90028 (CO-ADD:FG_001); MIC in YNB media using NBS plates, by OD630
Description for Cryptococcus neoformans: Antifungal activity against Cryptococcus neoformans H99 ATCC 208821 (CO-ADD:FG_002); MIC in YNB media using NBS plates, by Resazurin OD(600-570)
Description for Escherichia coli: Antibacterial activity against Escherichia coli ATCC 25922 (CO-ADD:GN_001); MIC in CAMBH media using NBS plates, by OD(600)
Description for Klebsiella pneumoniae: Antibacterial activity against Klebsiella pneumoniae MDR ATCC 70063 (CO-ADD:GN_003); MIC in CAMBH media using NBS plates, by OD(600)
Description for Staphylococcus aureus: Antibacterial activity against Staphylococcus aureus MRSA ATCC 43300 (CO-ADD:GP_020); MIC in CAMBH media, using NBS plates, by OD(600)

For orientation: CC50 means the concentration giving 50% cytotoxicity. For the compound `CCc1cc(O)c(Oc2ccc(C(N)=O)cc2F)cc1F`, the CC50 in the assay with HEK293 is above 20 µM. For the same compound, the MIC is above 20 µM in the assay with Pseudomonas aeruginosa [1]; above 20 µM against Cryptococcus neoformans; at most 0.156 µM against Staphylococcus aureus; 2.5 µM (≈ 0.733 µg/mL) in the assay on Escherichia coli; above 20 µM in the assay on Klebsiella pneumoniae; 10 µM (≈ 2.93 µg/mL) against Pseudomonas aeruginosa [2]. In addition, the MIC in the assay with Acinetobacter baumannii and against Candida albicans was above 20 µM each time.
Regarding `O=C(Nc1ccccc1C(=O)O)c1cccc(Oc2ccccc2)c1`, in the assay with HEK293, the CC50 is above 20 µM. For the same compound, the MIC against Pseudomonas aeruginosa [1], against Cryptococcus neoformans, against Staphylococcus aureus, against Escherichia coli, against Klebsiella pneumoniae and in the assay on Pseudomonas aeruginosa [2] was above 20 µM throughout. In addition, the MIC against Acinetobacter baumannii and against Candida albicans was above 20 µM each time.
As to `Cc1cc(C2CCCCC2)n(O)c(=O)c1` [CICLOPIROX], the CC50 with HEK293 is 3.98 µM. The MIC in the assay with Pseudomonas aeruginosa [1] is above 20 µM; with Cryptococcus neoformans, 5 µM (≈ 1.04 µg/mL); against Staphylococcus aureus it was above 20 µM; against Escherichia coli, above 20 µM; with Klebsiella pneumoniae it was above 20 µM; in the assay with Pseudomonas aeruginosa [2] it was above 20 µM. The MIC was above 20 µM against Acinetobacter baumannii and 5 µM (≈ 1.04 µg/mL) against Candida albicans.
On to `Cc1cc(C)n(O)c(=O)c1` [METIPIROX], for which the CC50 in the assay with HEK293 was above 20 µM. The MIC against Pseudomonas aeruginosa [1] is above 20 µM; in the assay on Cryptococcus neoformans it was 20 µM (≈ 2.78 µg/mL); against Staphylococcus aureus, above 20 µM; in the assay on Escherichia coli, above 20 µM; with Klebsiella pneumoniae it was above 20 µM; against Pseudomonas aeruginosa [2] it was above 20 µM. Besides, the MIC against Acinetobacter baumannii and with Candida albicans was above 20 µM in each case.
`O=C(c1nc2c(C(F)(F)F)cc(C3CC3)cn2c1Cl)N1CCN([C@H]2CC[C@H](O)CC2)C(=O)C1`: the CC50 in the assay with HEK293 was above 20 µM. Besides, the MIC against Pseudomonas aeruginosa [1], with Cryptococcus neoformans, against Staphylococcus aureus, against Escherichia coli, in the assay on Klebsiella pneumoniae and against Pseudomonas aeruginosa [2] was above 20 µM in each case. The MIC against Acinetobacter baumannii and against Candida albicans was above 20 µM throughout.
`O=C(O)COc1cccc2c1CC[C@](O)(COC(=O)N(c1ccccc1)c1ccccc1)C2`: the half-maximal cytotoxic concentration (CC50) in the assay with HEK293 was above 20 µM. For the same compound, the MIC with Pseudomonas aeruginosa [1], in the assay with Cryptococcus neoformans, in the assay on Staphylococcus aureus, in the assay on Escherichia coli, with Klebsiella pneumoniae and in the assay with Pseudomonas aeruginosa [2] was above 20 µM in each case. The MIC in the assay with Acinetobacter baumannii and in the assay with Candida albicans was above 20 µM in each case.
With `c1cc(CN2CCCNCCNCCCNCC2)ccc1CN1CCCNCCNCCCNCC1` [PLERIXAFOR], the CC50 in the assay with HEK293 was above 20 µM. Besides, the MIC against Pseudomonas aeruginosa [1], with Cryptococcus neoformans, with Staphylococcus aureus, with Escherichia coli, against Klebsiella pneumoniae and in the assay on Pseudomonas aeruginosa [2] was above 20 µM throughout. In addition, the MIC with Acinetobacter baumannii and in the assay on Candida albicans was above 20 µM each time.
As for `Cc1cc(Nc2ccc(F)cc2)nc(SCc2nc3ccccc3[nH]2)n1`, in the assay on HEK293, the CC50 was above 20 µM. The MIC against Pseudomonas aeruginosa [1], against Cryptococcus neoformans, in the assay with Staphylococcus aureus, against Escherichia coli, with Klebsiella pneumoniae and with Pseudomonas aeruginosa [2] was above 20 µM each time. The MIC in the assay on Acinetobacter baumannii and in the assay on Candida albicans was above 20 µM in each case.
On to `Clc1cc2nc(C3CCNCC3)n(Cc3ccc(CNCCc4c[nH]cn4)cc3)c2cc1Cl`, for which, in the assay on HEK293, the CC50 was above 20 µM. For the same compound, the MIC in the assay on Pseudomonas aeruginosa [1], in the assay on Cryptococcus neoformans, in the assay on Staphylococcus aureus, with Escherichia coli, with Klebsiella pneumoniae and with Pseudomonas aeruginosa [2] was above 20 µM each time. Also, the MIC with Acinetobacter baumannii and in the assay with Candida albicans was above 20 µM in each case.
Turning to `CC[C@H](CO)Nc1nc(NCc2ccccc2)c2ncn(C(C)C)c2n1` [SELICICLIB], the CC50 in the assay on HEK293 is above 20 µM. The MIC against Pseudomonas aeruginosa [1], against Cryptococcus neoformans, in the assay on Staphylococcus aureus, in the assay with Escherichia coli, in the assay with Klebsiella pneumoniae and against Pseudomonas aeruginosa [2] was above 20 µM throughout. Besides, the MIC with Acinetobacter baumannii and with Candida albicans was above 20 µM in each case.
As to `O=C(CCc1ccc2c(c1)OCO2)NCc1ccc(-c2ccccc2F)cc1`, the CC50 with HEK293 is above 20 µM. Also, the MIC in the assay with Pseudomonas aeruginosa [1], with Cryptococcus neoformans, with Staphylococcus aureus, in the assay on Escherichia coli, against Klebsiella pneumoniae and in the assay with Pseudomonas aeruginosa [2] was above 20 µM throughout. Moreover, the MIC with Acinetobacter baumannii and against Candida albicans was above 20 µM in each case.
Regarding `C[C@@H]1O[C@@H]1P(=O)(O)O`, in the assay on HEK293, the CC50 is above 20 µM. Further, the MIC with Pseudomonas aeruginosa [1], with Cryptococcus neoformans, with Staphylococcus aureus, in the assay on Escherichia coli, against Klebsiella pneumoniae and in the assay on Pseudomonas aeruginosa [2] was above 20 µM throughout. The MIC in the assay with Acinetobacter baumannii and in the assay on Candida albicans was above 20 µM each time.
With `Cc1onc(-c2ccccc2Cl)c1C(=O)N[C@@H]1C(=O)N2[C@@H]1SC(C)(C)[C@@H]2C(=O)O` [CLOXACILLIN], the CC50 in the assay on HEK293 was above 20 µM. Further, the MIC against Pseudomonas aeruginosa [1] was above 20 µM; against Cryptococcus neoformans, above 20 µM; against Staphylococcus aureus, 1.25 µM (≈ 0.545 µg/mL); against Escherichia coli, above 20 µM; against Klebsiella pneumoniae it was above 20 µM; against Pseudomonas aeruginosa [2] it was above 20 µM. For the same compound, the MIC in the assay with Acinetobacter baumannii and against Candida albicans was above 20 µM throughout.
Regarding `NC[C@H]1O[C@H](O[C@H]2[C@H](O)[C@@H](O[C@H]3O[C@H](CO)[C@@H](O)[C@H](N)[C@H]3O)[C@H](N)C[C@@H]2N)[C@H](N)C[C@@H]1O` [TOBRAMYCIN], the CC50 in the assay on HEK293 was above 20 µM. Besides, the MIC with Pseudomonas aeruginosa [1] was 1.25 µM (≈ 0.584 µg/mL); against Cryptococcus neoformans, above 20 µM; in the assay on Staphylococcus aureus, above 20 µM; in the assay with Escherichia coli, 2.5 µM (≈ 1.17 µg/mL); in the assay on Klebsiella pneumoniae it was above 20 µM; in the assay on Pseudomonas aeruginosa [2], 20 µM (≈ 9.35 µg/mL). Moreover, the MIC was 2.5 µM (≈ 1.17 µg/mL) in the assay with Acinetobacter baumannii and above 20 µM in the assay with Candida albicans.
Turning to `Nc1nc2c(ncn2/C=C2/CC2(CO)CO)c(=O)[nH]1` [FILOCICLOVIR], the CC50 with HEK293 was above 20 µM. The MIC against Pseudomonas aeruginosa [1], against Cryptococcus neoformans, in the assay with Staphylococcus aureus, against Escherichia coli, against Klebsiella pneumoniae and in the assay on Pseudomonas aeruginosa [2] was above 20 µM each time. For the same compound, the MIC against Acinetobacter baumannii and in the assay with Candida albicans was above 20 µM each time.
On to `O=[N+]([O-])c1cn(Cc2nc(O)nc(O)c2Br)cn1`, for which the CC50 in the assay on HEK293 is above 20 µM. Also, the MIC with Pseudomonas aeruginosa [1], against Cryptococcus neoformans, against Staphylococcus aureus, in the assay on Escherichia coli, against Klebsiella pneumoniae and in the assay with Pseudomonas aeruginosa [2] was above 20 µM each time. The MIC in the assay with Acinetobacter baumannii and against Candida albicans was above 20 µM each time.
For `Nc1ccc(-c2nc3cc(C(F)(F)F)ccc3n2C23CC4CC(CC(C4)C2)C3)cc1`, in the assay on HEK293, the CC50 was above 20 µM. The MIC in the assay with Pseudomonas aeruginosa [1], with Cryptococcus neoformans, in the assay on Staphylococcus aureus, in the assay on Escherichia coli, against Klebsiella pneumoniae and in the assay with Pseudomonas aeruginosa [2] was above 20 µM throughout. Also, the MIC against Acinetobacter baumannii and against Candida albicans was above 20 µM each time.
Take `CCCCCc1ccc(C(=O)NCCn2cc(CCCCCc3c[nH]c(N)n3)nn2)cc1`: the CC50 with HEK293 was above 20 µM. Moreover, the MIC in the assay with Pseudomonas aeruginosa [1], against Cryptococcus neoformans, against Staphylococcus aureus, in the assay with Escherichia coli, against Klebsiella pneumoniae and in the assay with Pseudomonas aeruginosa [2] was above 20 µM in each case. The MIC against Acinetobacter baumannii and in the assay with Candida albicans was above 20 µM throughout.
As to `CNCC(=O)OCc1cccnc1N(C)C(=O)OC(C)[n+]1cnn(C[C@](O)(c2cc(F)ccc2F)[C@@H](C)c2nc(-c3ccc(C#N)cc3)cs2)c1` (stereo not given in full) [ISAVUCONAZONIUM], the CC50 in the assay on HEK293 is above 20 µM. For the same compound, the MIC with Pseudomonas aeruginosa [1] is above 20 µM; in the assay on Cryptococcus neoformans it was 2.5 µM; against Staphylococcus aureus, above 20 µM; against Escherichia coli it was above 20 µM; with Klebsiella pneumoniae it was above 20 µM; with Pseudomonas aeruginosa [2], above 20 µM. The values for the MIC with Acinetobacter baumannii and in the assay on Candida albicans were above 20 µM and at most 0.156 µM, respectively.
As for `O=C(Nc1ccc(Cl)c(C(F)(F)F)c1)C(CCCl)C(=O)Nc1ccc(Cl)c(C(F)(F)F)c1`, the CC50 in the assay on HEK293 was above 20 µM. Also, the MIC with Pseudomonas aeruginosa [1], against Cryptococcus neoformans, with Staphylococcus aureus, against Escherichia coli, in the assay on Klebsiella pneumoniae and with Pseudomonas aeruginosa [2] was above 20 µM each time. The MIC in the assay with Acinetobacter baumannii and in the assay on Candida albicans was above 20 µM each time.
